Laboratory results: patent US6623953B1, “Enzymatic composition and method for seasoning wood” (ETS. Robert Stiernon S.A., priority 1998, dated 2003)

Test system: phenol heterosidase activity of the enzymatic preparation
Test: Inhibition of the phenol heterosidase activity by phenol compounds
Type: biochemical
Details: concentration 1 g/l
Procedure: The measurement of phenol heterosidase enzymatic activity PeH is based on the release of carboxylic functions which lower the pH of the reaction medium. 9 mg of an aqueous extract of green oak are added, in a test tube, to 9 ml of a 0.1 M NaCl solution, pH 4.5, containing 1% of enzymatic preparation EP. A control tube is prepared under the same conditions, without enzymes. The pH is measured in the two tubes at time 0 (pHc0 for the control and pHe0 for the enzyme) and after 4 hours of incubation at 25° C. (pHc4 and pHe4, respectively). The optimum conditions were established beforehand and there is perfect correlation between the release of glucose and the drop in pH.
The phenol heterosidase activity is calculated from the equation:
PeH=[(pHc0−pHc4)−(pHe0−pHe4)/4]×100 (PeH being expressed in 10^−3 units of pH/ml/h)
In general, all the heteroside substrates are used by the enzymatic activities present. Only the condensed tannins from grape show inhibition of the phenol heterosidase activity.

`O=C1OCC2OC(=O)c3cc(O)c(O)c(O)c3-c3c(O)c(O)c(O)c4c3C(=O)OC(C2OC(=O)c2cc(O)c(O)c(O)c2-c2c1cc(O)c(O)c2O)C1OC(=O)c2c-4c(O)c(O)c(O)c2C1O` (stereo not shown) [vescalagin, Vescalagin] was tested, and the “PeH in presence of phenol compound” value was 100 10^−3 pH/ml/h.
